Experimental data reported in patent US20210346329A1, “TCA CYCLE INTERMEDIATES AND METHODS OF USE THEREOF” (IMBRIA PHARMACEUTICALS, INC., priority 2018, published 2021).
Where “and” joins values, the source holds several entries; their conditions need not be identical. Equal values may be shown once. Read-outs that look alike come from different tables or passages of the source.

Key:
[1] = Description: Concentrations versus time data are plotted in FIG. 1 through FIG. 6.
[2] = Plasma concentrations of radioactive material; type: in vivo, CD® rats; settings: IV 10 mg/kg
Method: The plasma-time course, routes and rates of excretion, and tissue distribution of radioactivity following a single oral dose of ^14C-labeled citrate or single oral dose of ^14C-labeled succinate were analyzed in rats.
Formulations were prepared on the day prior to dosing.
CD® rats were obtained from Charles River Laboratories. Animals were 9-11 weeks in age at beginning of study.
Animals given intravenous ^14C-succinate were not kept in a fasting state. ^14C-succinate was administered by tail vein injection.
Blood and plasma were collected by cardiac puncture for terminal collection at 0.5, 1, 2, 4, 8, and 24 hours post-dose. Blood was stored on an ice block or wet ice until centrifugation to obtain plasma. Triplicate aliquots were weighed, mixed with scintillation cocktail, and counted by LSC.
Samples were analyzed for radioactivity by liquid scintillation counting (LSC) for at least 5 minutes or 100,000 cumulative counts. Samples were analyzed in triplicate.

[3] = SC 10 mg/kg, individual rat (777)
[4] = SC 10 mg/kg, individual rats 776, 777, 778, 10 mg/kg
[5] = SC 50 mg/kg, individual rats 779, 780, 781, 50 mg/kg
[6] = SC 100 mg/kg, individual rats 782, 783, 784, 100 mg/kg
[7] = SC 100 mg/kg, individual rats 782, 783, 100 mg/kg

Structure (SMILES): O=[13C](O)[13CH2][13CH2][13C](=O)O [^13C4-succinate]
- Time post dosing at which maximum plasma concentrations were observed ([1]; SC 10 mg/kg): 15 min
- Plasma concentration ([1]; SC 10 mg/kg, 0.50 hr, individual rats 776, 777, 778, 10 mg/kg): 1280 ng/mL (2×) and 854 ng/mL
- Plasma concentration ([1]; SC 10 mg/kg, 0.50 hr, mean): 1138 ng/mL
- Plasma concentration ([1]; SC 10 mg/kg, 1.0 hr, individual rats 776, 777, 778, 10 mg/kg): 430 ng/mL and 220 ng/mL and 415 ng/mL
- Plasma concentration ([1]; SC 10 mg/kg, 1.0 hr, mean): 355 ng/mL
- Plasma concentration ([1]; SC 10 mg/kg, 2.0 hr, individual rats 776, 777, 778, 10 mg/kg): 28.5 ng/mL and 10.6 ng/mL and 23.2 ng/mL
- Plasma concentration ([1]; SC 10 mg/kg, 2.0 hr, mean): 20.8 ng/mL
- Plasma concentration ([1]; SC 10 mg/kg, 4.0 hr, mean): 7.59 ng/mL
- AUC∞ [1, 3]: 1.03 µg·h/mL
- Dose-normalized AUC∞ [1, 3]: 103 kg·ng·h/mL/mg
- t1/2 [1, 3]: 27.2 min
- tmax ([1]; SC 10 mg/kg, individual rats 776, 777, 778): 15 min
- Bioavailability ([1]; SC 10 mg/kg, individual rats 776, 777, 778, vs average IV dose-normalized AUClast, 10 mg/kg): 98.9% and 47.7% and 76.7%
- AUClast [1, 4]: 2.131 µg·h/mL and 1.027 µg·h/mL and 1.653 µg·h/mL
- Cmax [1, 4]: 5.09 µg/mL and 2.09 µg/mL and 3.26 µg/mL
- MRTlast [1, 4]: 30.2 min and 29.3 min and 31.6 min
- AUClast ([1]; SC 10 mg/kg, mean): 1.604 µg·h/mL
- Cmax ([1]; SC 10 mg/kg, mean): 3.48 ± 1.512 µg/mL
- MRTlast ([1]; SC 10 mg/kg, mean): 30.4 min
- tmax ([1]; SC 10 mg/kg, mean): 15 min
- Bioavailability ([1]; SC 10 mg/kg, mean, vs average IV dose-normalized AUClast): 74.4±25.7%
- Dose-normalized AUClast ([1]; SC 10 mg/kg, mean, 10 mg/kg): 160 ± 55.4 kg·ng·h/mL/mg
- Dose-normalized AUClast ([1]; SC 10 mg/kg, mean, listed as 13C4-Succinate, 10 mg/kg): 160 kg·ng·h/mL/mg
- Time post dosing at which maximum plasma concentrations were observed ([1]; SC 50 mg/kg): 15 min
- Plasma concentration ([1]; SC 50 mg/kg, 0.50 hr, individual rats 779, 780, 781, 50 mg/kg): 9750 ng/mL and 15500 ng/mL and 11100 ng/mL
- Plasma concentration ([1]; SC 50 mg/kg, 0.50 hr, mean): 12117 ng/mL
- Plasma concentration ([1]; SC 50 mg/kg, 1.0 hr, individual rats 779, 780, 781, 50 mg/kg): 1020 ng/mL and 2420 ng/mL and 2020 ng/mL
- Plasma concentration ([1]; SC 50 mg/kg, 1.0 hr, mean): 1820 ng/mL
- Plasma concentration ([1]; SC 50 mg/kg, 2.0 hr, individual rats 779, 780, 781, 50 mg/kg): 102 ng/mL and 163 ng/mL and 122 ng/mL
- Plasma concentration ([1]; SC 50 mg/kg, 2.0 hr, mean): 129 ng/mL
- Plasma concentration ([1]; SC 50 mg/kg, 4.0 hr, individual rats 779, 780, 781, 50 mg/kg): 15.1 ng/mL and 10.3 ng/mL and 12.3 ng/mL
- Plasma concentration ([1]; SC 50 mg/kg, 4.0 hr, mean): 12.6 ng/mL
- Plasma concentration ([1]; SC 50 mg/kg, 8.0 hr, mean): 18.8 ng/mL
- tmax ([1]; SC 50 mg/kg, individual rats 779, 780, 781): 15 min
- Bioavailability ([1]; SC 50 mg/kg, individual rats 779, 780, 781, vs average IV dose-normalized AUClast, 50 mg/kg): 78.0% and 116% and 98.7%
- AUClast [1, 5]: 8.405 µg·h/mL and 12.496 µg·h/mL and 10.632 µg·h/mL
- Cmax [1, 5]: 14.8 µg/mL and 18.3 µg/mL and 18.9 µg/mL
- Dose-normalized AUClast [1, 5]: 168 kg·ng·h/mL/mg and 250 kg·ng·h/mL/mg and 213 kg·ng·h/mL/mg
- MRTlast [1, 5]: 33.5 min and 31.8 min and 30.3 min
- AUClast ([1]; SC 50 mg/kg, mean): 10.511 µg·h/mL
- Cmax ([1]; SC 50 mg/kg, mean): 17.333 ± 2.214 µg/mL
- MRTlast ([1]; SC 50 mg/kg, mean): 31.9 min
- tmax ([1]; SC 50 mg/kg, mean): 15 min
- Bioavailability ([1]; SC 50 mg/kg, mean, vs average IV dose-normalized AUClast): 97.6±19.0%
- Dose-normalized AUClast ([1]; SC 50 mg/kg, mean, 50 mg/kg): 210 ± 41.0 kg·ng·h/mL/mg
- Dose-normalized AUClast ([1]; SC 50 mg/kg, mean, listed as 13C4-Succinate, 50 mg/kg): 210 kg·ng·h/mL/mg
- Time post dosing at which maximum plasma concentrations were observed ([1]; SC 100 mg/kg): 15 min
- Plasma concentration ([1]; SC 100 mg/kg, 0.50 hr, individual rats 782, 783, 784, 100 mg/kg): 24500 ng/mL and 13900 ng/mL and 25200 ng/mL
- Plasma concentration ([1]; SC 100 mg/kg, 0.50 hr, mean): 21200 ng/mL
- Plasma concentration ([1]; SC 100 mg/kg, 1.0 hr, individual rats 782, 783, 784, 100 mg/kg): 6840 ng/mL and 4980 ng/mL and 7750 ng/mL
- Plasma concentration ([1]; SC 100 mg/kg, 1.0 hr, mean): 6523 ng/mL
- Plasma concentration ([1]; SC 100 mg/kg, 2.0 hr, individual rats 782, 783, 784, 100 mg/kg): 364 ng/mL and 435 ng/mL and 779 ng/mL
- Plasma concentration ([1]; SC 100 mg/kg, 2.0 hr, mean): 526 ng/mL
- Plasma concentration ([1]; SC 100 mg/kg, 4.0 hr, individual rats 782, 783, 784, 100 mg/kg): 103 ng/mL and 40.8 ng/mL and 52.9 ng/mL
- Plasma concentration ([1]; SC 100 mg/kg, 4.0 hr, mean): 65.6 ng/mL
- Plasma concentration ([1]; SC 100 mg/kg, 8.0 hr, mean): 25.9 ng/mL
- tmax ([1]; SC 100 mg/kg, individual rats 782, 783, 784): 15 min
- Bioavailability ([1]; SC 100 mg/kg, individual rats 782, 783, 784, vs average IV dose-normalized AUClast, 100 mg/kg): 115% (2×) and 72.0%
- AUClast [1, 6]: 24.683 µg·h/mL and 15.518 µg·h/mL and 24.689 µg·h/mL
- Cmax [1, 6]: 37.9 µg/mL and 23.1 µg/mL and 32 µg/mL
- Dose-normalized AUClast [1, 6]: 247 hr · kg · ng/mL/mg (2×) and 155 hr · kg · ng/mL/mg
- MRTlast [1, 6]: 35.8 min and 37.7 min and 39.6 min
- AUC∞ [1, 7]: 24.719 µg·h/mL and 15.53 µg·h/mL
- Dose-normalized AUC∞ [1, 7]: 247 kg·ng·h/mL/mg and 155 kg·ng·h/mL/mg
- t1/2 [1, 7]: 84 min and 44.8 min
- AUClast ([1]; SC 100 mg/kg, mean): 21.63 µg·h/mL
- AUC∞ ([1]; SC 100 mg/kg, mean): 20.124 µg·h/mL
- Cmax ([1]; SC 100 mg/kg, mean): 31 ± 7.451 µg/mL
- Dose-normalized AUC∞ ([1]; SC 100 mg/kg, mean): 201 kg·ng·h/mL/mg
- MRTlast ([1]; SC 100 mg/kg, mean): 37.7 min
- t1/2 ([1]; SC 100 mg/kg, mean): 64.2 min
- tmax ([1]; SC 100 mg/kg, mean): 15 min
- Bioavailability ([1]; SC 100 mg/kg, mean, vs average IV dose-normalized AUClast): 100±24.6%
- Dose-normalized AUClast ([1]; SC 100 mg/kg, mean, 100 mg/kg): 216 ± 52.9 kg·ng·h/mL/mg
- Dose-normalized AUClast ([1]; SC 100 mg/kg, mean, listed as 13C4-Succinate, 100 mg/kg): 216 kg·ng·h/mL/mg
- Change of exposure with increasing dose ([1]; SC 10, 50 and 100 mg/kg): nonlinear increase in exposure with increasing dose
- Adverse reactions ([1]; subcutaneous dosing, 10, 50 and 100 mg/kg): No adverse reactions were observed

Structure (SMILES): O=C(O)CCC(=O)O [^14C-succinate]
- Plasma concentration of radioactive material ([2]; 30 min, Subject 1001): 2809 ng-equivalents/g
- Plasma concentration of radioactive material ([2]; 1 hr, Subject 1002): 2996 ng-equivalents/g
- Plasma concentration of radioactive material ([2]; 2 hr, Subject 1003): 1466 ng-equivalents/g
- Plasma concentration of radioactive material ([2]; 4 hr, Subject 1004): 1158 ng-equivalents/g
- Plasma concentration of radioactive material ([2]; 8 hr, Subject 1005): 813 ng-equivalents/g
- Plasma concentration of radioactive material ([2]; 24 hr, Subject 1006): 511 ng-equivalents/g
